Consider 35 compounds from ChEMBL document CHEMBL1134880, “Quantum chemical- and 3-D-QSAR (CoMFA) studies of benzalacetones and 1,1,1-trifluoro-4-phenyl-3-buten-2-ones” (Bioorg Med Chem Lett, 2002).

The assay has as its system Escherichia coli. Description: Inhibition of UV-induced mutagenesis in Escherichia coli WP2uvrA. The format is functional, organism-based.

In general, IC50 refers to the concentration that gives 50% inhibition. The low end stands for inhibition by little substance, the high end for a need for much substance.

With `CCOc1cccc(/C=C/C(C)=O)c1O`, half-maximal inhibition (IC50) required 1200 µM. With `N#Cc1ccc(/C=C/C(=O)C(F)(F)F)cc1`, the half-maximal inhibitory concentration (IC50) is 25.1 µM. Compound `COc1ccc(/C=C/C(=O)C(F)(F)F)cc1` gave a half-maximal inhibitory concentration (IC50) of 74.1 µM. This IC50 is about 3-fold higher than that of the compound before.

Regarding `O=C(/C=C/c1cccc(Cl)c1)C(F)(F)F`, half-maximal inhibition (IC50) was put at 24 µM. Compound `CC(=O)/C=C/c1cccc(C#N)c1` gave a half-maximal inhibitory concentration (IC50) of 282 µM. The same measure for `CC(=O)/C=C/c1ccccc1F`: 339 µM. The same measure for `CC(=O)/C=C/c1cccc(C)c1`: 1510 µM; for `CC(=O)/C=C/c1cccc([N+](=O)[O-])c1`: 151 µM. As for `CC(=O)/C=C/c1ccccc1O`, half-maximal inhibition (IC50) required 229 µM. Take `CC(=O)/C=C/c1ccccc1Cl`: the IC50 is 525 µM. This IC50 is about 2.3-fold higher than that of the compound before.

`CC(=O)/C=C/c1ccc(C)cc1` gave a 50% inhibitory concentration (IC50) of 1580 µM. For `COc1ccc(/C=C/C(C)=O)cc1` the value was 1580 µM. For `COc1cccc(/C=C/C(C)=O)c1` the value was 708 µM. `CC(=O)/C=C/c1ccc(F)cc1` had an IC50 of 631 µM. This IC50 and that of the compound before are within 1.5-fold of each other. For `CC(=O)/C=C/c1ccccc1Br` the value was 398 µM; for `CC(=O)/C=C/c1ccc([N+](=O)[O-])cc1`, 83.2 µM. The same measure for `CC(=O)/C=C/c1cc(C)c(O)c(C)c1`: 1100 µM; for `CC(=O)/C=C/c1cccc(C(F)(F)F)c1`: 219 µM; for `COc1cccc(/C=C/C(C)=O)c1O`: 676 µM.

Regarding `CC(=O)/C=C/c1ccc(Br)cc1`, the 50% inhibitory concentration (IC50) was 525 µM. The IC50 values of the last two compounds are within 1.5-fold of each other.

In turn, `CC(=O)/C=C/c1cccc(Br)c1` had an IC50 of 407 µM. The IC50 values of the last two compounds are within 1.5-fold of each other. The same measure for `CC(=O)/C=C/c1cccc(F)c1`: 257 µM; for `O=C(/C=C/c1ccc(Cl)cc1)C(F)(F)F`: 15.8 µM; for `CCc1ccc(/C=C/C(C)=O)cc1`: 1200 µM. The same measure for `CC(=O)/C=C/c1cccc(Cl)c1`: 427 µM; for `O=C(/C=C/c1cccc([N+](=O)[O-])c1)C(F)(F)F`: 17 µM.

Regarding `CC(=O)/C=C/c1ccc(C(F)(F)F)cc1`, the IC50 is 110 µM. `CC(=O)/C=C/c1cccc(C)c1O`: the IC50 was 240 µM. This IC50 lies about 2.2-fold higher than the previous one.

As to `O=C(/C=C/c1ccccc1Cl)C(F)(F)F`, the IC50 is 28.2 µM. The same measure for `CC(=O)/C=C/c1ccc(O)c(O)c1`: 977 µM; for `O=C(/C=C/c1ccccc1)C(F)(F)F`: 30.2 µM. Take `N#Cc1cccc(/C=C/C(=O)C(F)(F)F)c1`: the half-inhibitory concentration (IC50) is 17 µM. For the compound `CC(=O)/C=C/c1ccc(Cl)cc1`, the IC50 was 324 µM. For `CC(=O)/C=C/c1ccc(C#N)cc1` the value was 170 µM. `CC(=O)/C=C/c1ccc(O)cc1` had an IC50 of 1200 µM. This IC50 is about 7.1-fold higher than that of the compound before.
